Experimental data: patent US6232340A, “Vanadium complexes and derivatives thereof and methods related thereto” (priority 1998, dated 2001)
“Also recorded” adds a separate entry of the source.

Key:
[1] = system: Collagen Induced Arthritis; test: Treatment of collagen induced arthritis (CIA) with BMOV and NAC; assay type: in vivo, rats
Procedure: CIA in rats is a model of chronic inflammatory synovitis with pannus formation, neovascularization, and joint destruction similar to rheumatoid arthritis (RA). After immunization with native collagen type II (CII) in incomplete Freund's adjuvant, 90-100% of genetically susceptible rats reliably develop clinical arthritis within 10 to 14 days.
Arthritis is induced in syngeneic 8 week old female Louvain (LOU) rats by intradermal immunization under ether anaesthesia on Day 0 with 0.5 mg native chick collagen II (CII) (Genzyme, Boston, Mass.) solubilized in 0.1M acetic acid and emulsified in incomplete Freund's adjuvant (IFA) (Difco, Detr, Mich.) (D. E. Trentham et al., J. Exp. Med. 146:857-868, 1977). Onset of clinical arthritis typically develops in 90-100% of control rats 10-12 days post CII immunization.
On day 10 post immunization, arthritis-induced rats are randomized into two groups. Control rats (n=10) receive only an aqueous vehicle at a dose of 100 mg/kg/day s.c. The experimental group (n=10) receives an aqueous vehicle at 100 mg/kg/day s.c., as well as O[BEOV]2 subcutaneously at the appropriate dose.
The severity of clinical arthritis in each limb is scored daily based on an objective integer scale of 0-4 (D. E. Trentham et al., J. Exp. Med. 146:857-868, 1977). A score of 0 indicates an unaffected limb, while a score of 4 represents fulminant erythema and edema involving distal digits. The arthritic index is defined as the sum of its four limb scores. Since CIA typically involves only the hind limbs, an arthritic index of 6 to 8 is considered to represent severe arthritis.
At the end of the study (Day 18-post arthritis onset), hind limb radiographs are obtained. An investigator blinded to the treatment protocol assigns a score to each limb, based on the degree of soft tissue swelling, joint space narrowing, periosteal new bone information, and the presence of erosions and ankylosis (0=normal; 3=maximal joint destruction). The radiographic index is defined as the sum of the limbs.
The humoral immunity is evaluated by collecting rat serum on Day 18 post arthritis onset for measuring anti-CII IgG by an enzyme linked immunosorbent assay (ELISA) (E. Brahn and D. E. Trentham, Cell Immunol. 86:421-428, 1984; E. Brahn and D. E. Trentham, Cell Immunol. 118:491-503, 1989). Antibody titers are normalized against a previously standardised curve and absorbance read at 490 nm at a serum dilution of 1:2500.
Synovium is selected from rats on Day 5 and Day 18-post arthritis onset to study joint morphology using electron microscopy. On Day 18-post arthritis onset, one ankle joint of each arthritic control and O[BEOV]2 -treated rat is removed, critical point dried, and gold sputter-coated for scanning electron microscopy to examine the trochlear surfaces. Conventional transmission electron microscopy is also performed on the articular cartilage of the trochlear surfaces of native, arthritic control, and O[BEOV]2 -treated animals.

[2] = system: collagenase; test: Northern blot, synovial collagenase expression in CIA rats; assay type: in vivo; details: vs control group
Description: (§1) Collagenase, stromelysin, and IL-1 mRNA were readily detected in the vehicle control group. When normalized for RNA loading, expression of all three genes was decreased in the animals in the BMOV-treated group compared to the control group.

[3] = system: stromelysin; test: Northern blot, synovial stromelysin expression in CIA rats; assay type: in vivo; details: vs control group
Description: as §1

[4] = system: IL-1; test: Northern blot, synovial IL-1 expression in CIA rats; assay type: in vivo; details: vs control group
Description: as §1

[5] = system: non-proliferating cells; details: previous studies; cited from earlier work
[6] = system: proliferating cells; details: previous studies; cited from earlier work
[7] = system: synoviocytes; details: previously shown; cited from earlier work
[8] = system: drug resistant cell lines; details: previous studies; cited from earlier work
[9] = system: H460 (human non-small cell lung cancer); test: Efficacy on H460 human non-small cell lung cancer xenograft in SCID-RAG-2 mice (Example 37); assay type: in vivo, human tumor cells in SCID-RAG-2 female mice; details: for tumor size reduction (caliper volumes) / reduction of tumor weight relative to control: 500 μg/dose s.c. b.i.d., 9 days; for tumor size reduction (caliper volumes): vs control; for reduction of tumor weight relative to control: day 10
Procedure: A study was undertaken to confirm the efficacy of OHBEOV and O[BEOV]2 using SCID-RAG-2 female mice with implanted human H460 tumors (lung cancer). […] The protocol used was as follows. 15 SKID-RAG-2 mice were randomly divided into 3 groups. Groups were treated as follows. […] Vehicle (isotonic phosphate buffer) was filtered through 0.22 pm sterile filter (Costar 140666).
(§2) The groups were as follows:
(§3) 1) Vehicle control: isotonic phosphate buffer. 300 μl/dose, total of 600 μl/day.
(§4) Treatment continued for a total of nine days. Mice were terminated on day 10 with carbon dioxide. Tumors were removed and weighed following blotting.

[10] = isotonic phosphate buffered saline
[11] = system: MDAY-D2 tumors; test: Tumor efficacy on MDAY-D2 tumors in DBA-2 mice (Example 36); assay type: in vivo, murine tumor cells in DBA-2 mice
Procedure: The protocol used is as follows. 10 DBA-2 mice were randomly divided into 2 groups. Groups were treated as follows. […] Vehicle (isotonic phosphate buffer) was filtered through 0.22 μm sterile filter (Costar 140666).
as §2, §3, §4

[12] = system: H460 human non-small cell lung cancer
Procedure: The purpose was to establish safe efficacious levels of s.c., b.i.d. administration of OHBEOV for 9 days. The protocol used is as follows. 20 female Scid/Rag-2 mice were randomly divided into 4 groups. Groups were treated as follows. H460 tumor cells were inoculated (50 μl 10^6 cells bilaterally in the posterior dorsal region) as discussed earlier. On day 11 following tumor inoculation, the 9 day treatment began. Vehicle (isotonic phosphate buffer) filtered through 0.22 μm sterile filter (Costar 14066).
Mice were weighed as a group prior to injection in the morning. Injections were s.c. in the neck region distal to the tumor sight and were delivered b.i.d. between 8-9 a.m. and between 4-5 p.m. Tumor volumes were estimated on a daily basis from measurements taken with calipers.

[13] = Maximum Tolerated Dose study, s.c. b.i.d. for nine days in DBA-2 mice (Example 33); assay type: in vivo, female mice (DBA-2)
Procedure: A Maximum Tolerated Dose (M.T.D.) study was undertaken to determine a safe tolerable dose for administration of OHBEOV through a parenteral (s.c.) route of administration delivered twice daily (b.i.d.) for nine days in female mice (DBA-2). The protocol was as follows. 14 DBA-2 mice were randomly divided into groups of 2 for a total of 7 groups. Groups were treated as follows. Vehicle (sterile isotonic phosphate buffer, pH 7.2) was filtered through 0.22 pm sterile filter (Costar 140666). OHBEOV was dissolved with gentle heating and stirring for about 20 min.
(§5) 1) Vehicle control: 300 μl/dose for a total of 600 μl/day.
7) 300 μl of 2 mg/mL OHBEOV to be injected for a total of 1200 μg/day.
(§6) Mice were weighed as a group (N=2) prior to injection in the morning. […] Treatment continued for a total of nine days. Groups were observed and weighed daily for 2 weeks following the final treatment and observed for behavioral signs of toxicity i.e. reduced preening, and mobility and organ failure, i.e., weight loss, death. Following this period, mice were terminated with carbon dioxide. Liver, spleen and kidney (and other organs) were weighed and kept for histology if appearance appeared abnormal.

[14] = Plasma glucose levels following acute and b.i.d. dosing (insulin mimetic effect); assay type: in vivo
[15] = Maximum Tolerated Dose study, i.v. b.i.d. for nine days in DBA-2 mice (Example 34); assay type: in vivo, female mice (DBA-2)
Procedure: A Maximum Tolerated Dose (M.T.D.) study was undertaken to determine a safe tolerable dose for administration of OHBEOV through an intravenous route of administration delivered twice daily for nine days in female mice (DBA-2). The protocol was as follows. 8 DBA-2 female mice were randomly divided into groups of 2 for a total of 4 groups. Groups were treated as follows. Vehicle (sterile isotonic phosphate buffer, pH 7.2) was filtered through 0.22 μm sterile filter (Costar 140666).
as §5
as §6, with “toxicity, i.e.,” for “toxicity i.e.”, “organs)” for “organs) were”

[16] = xenograft model of human lung cancer

Compound: Cc1occc(=O)c1[O-].Cc1occc(=O)c1[O-].[O]=[V+2] [BMOV, Bis(maltolato)oxovanadium(IV)]
- diarrhoea ([1]; 10 mg/kg/day): not observed
- diarrhoea ([1]; 15 mg/kg/day on Day 11 post arthritis onset): minor diarrhoea
- cartilage damage (scanning and transmission electron micrographs) ([1]; joints vs control): little cartilage damage and intact cartilage
- trochlear surface of articular cartilage ([1]; vs control rats): normal trochlear surface
- articular cartilage ultrastructure (transmission electron micrographs) ([1]; vs native animal): indistinguishable from the native animal
- inhibition of collagenase gene expression ([2]; normalized for RNA loading): 78%
- synovial expression of collagenase [2]: reduced
- inhibition of stromelysin gene expression ([3]; normalized for RNA loading): 58%
- synovial expression of stromelysin [3]: reduced
- inhibition of IL-1 gene expression ([4]; printed "IL-In", normalized for RNA loading): 85%
- synovial expression of IL-1 [4]: to a lesser degree, IL-1, were reduced

Compound: CC(=O)N[C@@H](CS)C(=O)O [NAC]
- arthritis severity ([1]; NAC alone): developed severe arthritis; also recorded: no appreciable effect on the clinical severity of CIA

Compound: [O]=[V]([O-])([O-])[O-] [orthovanadate]
- effect on non-proliferating cells [5]: did not affect the non-proliferating cells
- effect on proliferating cells [6]: toxic to proliferating cells
- cytotoxicity to synoviocytes [7]: cytotoxic to the cells
- synoviocyte proliferation [7]: inhibited synoviocyte proliferation
- toxicity to drug resistant cell lines [8]: equally toxic to all the drug resistant cell lines

Compound: μ-Oxobis[bis(2-ethyl-3-hydroxy-4-pyronato)oxovanadium(V)] [O[BEOV]2]
- tumor size reduction (caliper volumes) [9]: significant reduction in tumor size
- reduction of tumor weight relative to control [9]: approximately 70%

Compound: CCc1occc(=O)c1[O][V](=[O])([OH])[O]c1c(CC)occc1=O [OHBEOV, Bis(2-ethyl-3-hydroxy-4-pyronato)hydroxyoxovanadium(V)]
- maximum solubility [10]: 6000 µg/mL
- tumor size reduction (caliper volumes) ([11]; 500 μg/dose s.c. b.i.d., 9 days, vs control): significant reduction in tumor size
- reduction of tumor weight relative to control ([11]; 500 μg/dose s.c. b.i.d., 9 days, day 10): approximately 70%
- tumor efficacy ([11]; murine solid tumor model at maximum tolerated dose, s.c. b.i.d. 9 days): significant tumor efficacy was demonstrated
- dose-response of mean tumor weight ([12]; 600-1000 μg/day s.c., day 10): dose-response relationship
- correlation of tumor vanadium with tumor size and dose ([12]; atomic absorption spectroscopy, end of study): strongly correlated
- myelosuppression ([12]; in vivo): no evidence of myelosuppression
- plasma leukocyte count / immune response ([12]; in vivo): no significant changes in plasma leukocyte count
- anti-tumor activity [12, 16]: significant dose-dependent anti-tumor activity
- final tumor size reduction [12, 16]: approximately 70%
- tumor size reduction (caliper volumes) [9]: significant reduction in tumor size
- reduction of tumor weight relative to control [9]: approximately 70%
- tumor efficacy ([9]; human lung cancer xenograft at maximum tolerated dose, s.c. b.i.d. 9 days): significant tumor efficacy was demonstrated
- spleen appearance upon necropsy ([13]; 600 μg/dose s.c., visual inspection): enlarged
- maximum tolerated dose ([13]; b.i.d., s.c. for 9 days): 500 µg/day
- weight loss ([13]; doses up to and including 500 μg (1000 μg/day) s.c., 9 day treatment and 14 day follow up): less than 15%
- weight loss of one animal terminated ([13]; maximum dose of 600 μg s.c.): 25%
- tolerability (doses up to and including) ([13]; per dose, s.c. b.i.d., 9 days, well tolerated): 500 µg
- weight recovery following termination of treatment ([13]; s.c.): all animals regained their original weight
- skin lesions at the injection site ([13]; s.c., higher doses): some skin lesions were noted
- weight loss ([13]; treatment protocol and dose level used to demonstrate tumor efficacy): less than 15%
- plasma glucose levels following dosing ([14]; acute and b.i.d. dosing): decreased following dosing
- plasma glucose level (normoglycemic range) ([14]; following dosing, non-diabetic animals): 4 mM
- time for plasma glucose to return to pre-dosing levels ([14]; single and multiple b.i.d. dosing): ≤ 1 h
- weight loss ([15]; doses up to and including 300 μg (600 μg/day) i.v., 9 day treatment and 14 day follow up): less than 15%
- weight recovery following termination of treatment ([15]; i.v.): all animals regained their original weight
- tolerability (doses up to and including) ([15]; per dose, i.v. b.i.d., 9 days, well tolerated): 300 µg

Compound: O=S(=O)([O-])[O-].[O]=[V+2] [vanadyl sulphate]
- cytotoxicity to synoviocytes [7]: cytotoxic to the cells
- synoviocyte proliferation [7]: inhibited synoviocyte proliferation
